One data set has as its target T1, W37TLplA (Escherichia coli, UniProt P32099, W38T).
T1 construct: His6; made in house; host or cells: E. coli (bacterial lysate, not purified)
Put plainly: UPLC screening of LplA single mutants for Pacific Blue ligation. In kind it is biochemical, E. coli. The settings on record: after 12 hours, 500 μM probe. The protocol:
In vitro ligation reactions were assembled as described in the main text with the following modifications. 5 μL bacterial lysate containing LplA was used in place of purified enzyme. Total reaction volume was 25 μL. Instead of LAP peptide, 150 μM purified E2p protein (see Uttamapinant, et al., 2010) was used. Reactions proceeded overnight at 30° C. with 500 μM probe. Ultra Performance Liquid Chromatography (UPLC) was used to detect any product formation. All products were confirmed by in-line mass spectrometry.

Data set [1] can be described thus: Photophysical properties, pKa and pH profiles of coumarin probes. Type of data set: physicochemical. The settings on record: 150 μM solutions, pH 3-10 buffers. The protocol:
Fluorescence emission was recorded for 150 μM solutions, using a TECAN Safire Microplate Reader and a plastic transparent-bottomed 384-well plate (Greiner). pH 3-6 buffers were prepared by mixing different ratios of 0.1M acetic acid and 0.1M sodium acetate-trihydrate solutions. pH 7-10 buffers were prepared by mixing different ratios of 0.1M Na2HPO4 and either 0.1M HCl (for pH 7-9 buffers) or 0.1M NaOH (for pH 10 buffer). Final pH adjustments in all buffer solutions were made by adding small amount of 1M HCl or 1M NaOH.

For data set [2] the following is noted: cited from earlier work.
Data set [3] addresses T2, W37VLplA (Escherichia coli, UniProt P32099, W38V). Put plainly: In vitro coumarin ligation onto LAP2 (HPLC). In kind it is biochemical, E. coli. The settings on record: 500 μM coumarin probe, 2 μM W37VLplA, 55-minute reaction. As to the method: Reactions were assembled as follows: 2 μM LplA enzyme, 150 μM LAP2 synthetic peptide (sequence: […]; see Puthenveetil et al., J. Am. Chem. Soc. 2009, 131 16430-16438), 500 μM 7-aminocoumarin 6 probe, 5 mM ATP, and 5 mM Mg(OAc)2 in 25 mM Na2HPO4 pH 7.2. The reaction mixture was incubated at 30° C. for 2 hours and quenched with EDTA (final concentration 100 mM). The mixture was analyzed on a Varian Prostar HPLC using a reverse-phase C18 Microsorb-MV 100 column (250×4.6 mm). Chromatograms were recorded at 210 nm. We used a 10-minute gradient of 30-60% acetonitrile in water with 0.1% trifluoroacetic acid under 1 mL/minute flow rate.
2 μM ^W37VLplA and 500 μM coumarin probe were used in one case. Aliquots from the reaction were collected and quenched with EDTA over 55 minutes. For the other case, 1 μM ^W37VLplA and 100 μM coumarin probe were used, and aliquots were collected and quenched over 70 minutes. After HPLC analysis, percent product conversions were calculated by dividing the product peak area by the sum of (product+starting material) peak areas.

In data set [4] the target is T2, W37VLplA. The following applies: previously determined, cited from earlier work.
In data set [5] the target is Trp37→Val LplA (W37VLplA) (Escherichia coli, UniProt P32099, W38V). The settings on record: 30 min reaction, 500 μM probe; normalized to TCO2/Trp37→Val. The protocol: (§1) LplA protein was purified as previously described2 and stored at −80° C. in 20 mM Tris-HCl, pH 7.5 supplementated with 10% v/v glycerol. Reactions were quenched with 30 mM EDTA (final concentration) and resolved by HPLC (Varian ProStar) on a C-18 column using a linear gradient of 25-60% acetonitrile in H2O (with 0.1% v/v trifluoroacetic acid) over 14 minutes. Species were detected at 210 nm absorbance. Peaks corresponding to LAP and its trans-cyclooctene adducts were confirmed by ESI mass spectrometry. The extent of conversion was calculated from ratios of peak areas, neglecting minor extinction coefficient changes to LAP due to trans-cyclooctene ligation.
Chain of Trp37→Val LplA (W37VLplA) (P32099 2-338 W38V): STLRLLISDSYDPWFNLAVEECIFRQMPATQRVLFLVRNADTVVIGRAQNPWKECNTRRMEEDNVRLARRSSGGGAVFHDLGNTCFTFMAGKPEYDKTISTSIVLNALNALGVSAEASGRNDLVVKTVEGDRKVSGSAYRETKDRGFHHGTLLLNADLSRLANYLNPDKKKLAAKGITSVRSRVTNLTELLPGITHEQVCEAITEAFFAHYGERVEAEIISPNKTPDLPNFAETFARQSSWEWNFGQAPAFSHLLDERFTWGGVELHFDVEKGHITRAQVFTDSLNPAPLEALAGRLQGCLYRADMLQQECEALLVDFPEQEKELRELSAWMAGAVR
(§2) The relative abilities of wild-type and mutant ligases to ligate TCO1-3 onto LplA acceptor peptide (LAP) were measured by an HPLC assay after 30 min. reaction time. […] Errors, ±1 s. d.

The target in another data set is Trp37→Gly LplA (Escherichia coli, UniProt P32099, W38G). The following applies: 30 min reaction, 500 μM probe; normalized to TCO2/Trp37→Val. The protocol:
as §1, §2

The target of the next data set is Trp37→Ile LplA (Escherichia coli, UniProt P32099, W38I). The following applies: 30 min reaction, 500 μM probe; normalized to TCO2/Trp37→Val. As to the method: as §1, §2
Chain of Trp37→Ile LplA (P32099 2-338 W38I): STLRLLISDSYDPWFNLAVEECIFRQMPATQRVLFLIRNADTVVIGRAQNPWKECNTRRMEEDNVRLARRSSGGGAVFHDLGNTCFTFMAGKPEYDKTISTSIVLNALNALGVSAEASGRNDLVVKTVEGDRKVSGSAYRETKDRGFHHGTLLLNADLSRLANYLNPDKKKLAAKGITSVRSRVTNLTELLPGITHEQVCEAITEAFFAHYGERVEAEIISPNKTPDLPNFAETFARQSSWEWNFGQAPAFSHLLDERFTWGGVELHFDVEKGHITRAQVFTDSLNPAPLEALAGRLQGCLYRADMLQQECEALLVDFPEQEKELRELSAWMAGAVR
Data set [6] relates to LAP-LDL receptor on HEK cells. Kind of data set: Comparison of Diels-Alder cycloaddition, CuAAC and strain-promoted cycloaddition for cell surface fluorescence labeling. Type of data set: cell-based, human. The following applies: 3 min staining after TCO2 ligation. The source says: (A) HEK cells expressing LAP-LDL receptor and a nuclear cyan fluorescent protein transfection marker (shown in cyan, overlaid with DIC) were labeled in two steps, using three methodologies, as indicated by the scheme: Diels-Alder cycloaddition (left), CuAAC (middle), and strain-promoted cycloaddition (right). Fernandez-Suarez et al., Nature Biotechnology 2007, 25, 1483-1487. For the latter two, LAP was first derivatized with 8-azidooctanoic acid under conditions known to give quantitative yield. DIBO is dibenzylcyclooctyne. In all three cases, the second step was performed for 3 min., using the indicated Alexa 647 conjugates at the three indicated concentrations. Cells were imaged live after brief rinsing. Specific fluorescence staining with 1 μM DIBO-Alexa 647 was detectable (shown with enhanced contrast in inset). (B) Comparing cell viability after cell surface fluorescence labeling. Chinese hamster ovary cells expressing LAP-LDL receptor were labeled using Diels-Alder cycloaddition or CuAAC under the indicated conditions. Cell viability was then measured in triplicate, with untransfected and untreated cells defined as 100% viable. […]
These were previously determined, by subsequent lipoic acid pulse labeling, to give almost quantitative yield of 8-azidooctanoic acid ligation. […]

Data set [7] is described as follows: Photophysical properties of phycoerythrin and AlexaFluor 568. In kind it is physicochemical.

Read-outs that look alike come from different tables or passages of the source. Some results are limits rather than exact numbers.

T2 sequence (P32099 2-338 W38V): as the sequence (P32099 2-338 W38V) above
T1 sequence (P32099 2-338 W38T): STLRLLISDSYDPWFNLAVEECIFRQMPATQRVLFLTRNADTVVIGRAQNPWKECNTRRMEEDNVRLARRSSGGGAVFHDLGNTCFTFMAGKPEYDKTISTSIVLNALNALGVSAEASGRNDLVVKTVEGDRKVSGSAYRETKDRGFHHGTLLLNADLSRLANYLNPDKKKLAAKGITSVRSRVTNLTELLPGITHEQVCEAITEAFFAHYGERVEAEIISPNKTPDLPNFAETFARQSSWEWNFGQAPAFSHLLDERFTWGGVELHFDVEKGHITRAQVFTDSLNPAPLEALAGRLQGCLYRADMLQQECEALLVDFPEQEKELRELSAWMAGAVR
Chain of Trp37→Gly LplA (P32099 2-338 W38G): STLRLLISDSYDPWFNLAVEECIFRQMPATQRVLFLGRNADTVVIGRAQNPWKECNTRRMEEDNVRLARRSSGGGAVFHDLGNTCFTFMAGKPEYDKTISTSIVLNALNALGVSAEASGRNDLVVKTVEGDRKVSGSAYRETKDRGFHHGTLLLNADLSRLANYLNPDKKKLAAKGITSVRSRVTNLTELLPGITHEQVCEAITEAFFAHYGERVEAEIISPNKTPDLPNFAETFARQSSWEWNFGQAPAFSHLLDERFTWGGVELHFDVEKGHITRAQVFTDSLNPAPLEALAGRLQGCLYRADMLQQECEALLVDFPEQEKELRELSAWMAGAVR

With “6,8-difluoro-7-hydroxycoumarin [Pacific Blue]”, the “conversion to ligation product” value on W37TLplA is given as roughly 50%.
For orientation: Km means the concentration of substrate that gives half-maximal velocity. By kcat is commonly meant the number of substrate molecules converted per active site and unit of time at saturation. Regarding `O=C(O)CCCCNC(=O)c1cc2ccc(O)cc2oc1=O` [7-hydroxycoumarin 2], in data set [1], the “pH dependence of fluorescence” value was “drops sharply at pH values <6.5”. For the same compound, in data set [2] (Sun, et al.), the emission maximum is 448 nm, the excitation maximum was 386 nm and the extinction coefficient is given as 36,700 M^−1 cm^−1. Further, the “pKa of 7-OH substituent” value in data set [2] is 7.5. Also, the “LAP converted to product” value on W37VLplA [3] is listed as 46%. Besides, on W37VLplA [4], the Km is 56 ± 20 µM and the kcat was 0.019 s⁻¹. For the same compound, on W37VLplA [4] (listed as HC4), the kcat was 0.019 ± 0.004 s⁻¹.
On to `O=C(O)CCCNC(=O)OC[C@H]1[C@@H]2CC/C=C/CC[C@@H]21` [TCO3, (rel-1R,8S,9R,4E)-Bicyclo[6.1.0]non-4-ene-9-ylmethyl-N-butyric acid carbamate], for which the “Ligation efficiency (average, normalized product percentage), Trp37→Val” value in data set [5] is recorded as 6.6 ± 0.6%. For the same compound, on Trp37→Gly LplA, the “Ligation efficiency (average, normalized product percentage), Trp37→Gly” value is given as 22.6 ± 2.0%. Also, the “Ligation efficiency (average, normalized product percentage), Trp37→Ile” value on Trp37→Ile LplA is recorded as 6.0 ± 0.6%.
For “Aminobenzyltetrazine Alexa Fluor 647 [Tz1-Alexa 647]”, in [6], the “dye concentration giving specific signal” value came to 10 nM.
Turning to R-phycoerythrin, the “brightness relative to AlexaFluor 568” value in [7] is on record as greater than 25 times.

These data come from patent US20150125904A1, “PROBE INCORPORATION MEDIATED BY ENZYMES” (Massachusetts Institute of Technology, priority 2012, published 2015).
